Columns and labels:
[1] = molecular target: T1, Octopamine receptor (Periplaneta americana) (UniProt Q7YWB7); assay: Agonist activity at Periplaneta americana (American cockroach) thoracic nerve cord octopaminergic receptor assessed as induction of adenylate cyclase-mediated cAMP production per mg protein at 100 uM by radioimmunoassay relative to octopamine
T1 sequence (whole entry): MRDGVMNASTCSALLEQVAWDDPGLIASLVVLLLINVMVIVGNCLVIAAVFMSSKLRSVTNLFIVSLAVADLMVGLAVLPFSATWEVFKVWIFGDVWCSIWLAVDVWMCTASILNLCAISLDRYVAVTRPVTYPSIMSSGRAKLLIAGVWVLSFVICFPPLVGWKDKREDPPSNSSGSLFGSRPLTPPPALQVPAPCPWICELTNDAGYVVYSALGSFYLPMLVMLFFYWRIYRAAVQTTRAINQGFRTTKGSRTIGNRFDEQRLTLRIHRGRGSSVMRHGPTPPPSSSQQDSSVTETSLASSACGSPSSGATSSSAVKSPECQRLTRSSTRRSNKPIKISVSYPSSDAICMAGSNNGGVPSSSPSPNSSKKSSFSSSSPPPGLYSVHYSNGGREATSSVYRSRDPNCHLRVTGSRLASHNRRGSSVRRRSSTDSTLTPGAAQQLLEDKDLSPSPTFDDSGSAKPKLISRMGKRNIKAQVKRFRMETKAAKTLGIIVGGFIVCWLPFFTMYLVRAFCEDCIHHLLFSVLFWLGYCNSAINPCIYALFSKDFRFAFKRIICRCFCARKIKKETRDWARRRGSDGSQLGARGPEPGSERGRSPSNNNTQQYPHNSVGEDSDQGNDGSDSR

[2] = molecular target: T1, Octopamine receptor (Periplaneta americana); assay: Agonist activity at Periplaneta americana (American cockroach) thoracic nerve cord octopaminergic receptor assessed as induction of adenylate cyclase-mediated cAMP production per mg protein at 100 uM by radioimmunoassay
[3] = molecular target: T1, Octopamine receptor (Periplaneta americana); assay: Agonist activity at Periplaneta americana (American cockroach) thoracic nerve cord octopaminergic receptor assessed as induction of adenylate cyclase-mediated cAMP production per mg protein by radioimmunoassay
[4] = molecular target: T1, Octopamine receptor (Periplaneta americana); assay: Agonist activity at Periplaneta americana (American cockroach) thoracic nerve cord octopaminergic receptor assessed as induction of adenylate cyclase-mediated cAMP production per mg protein at 10 uM by radioimmunoassay relative to octopamine
[5] = molecular target: T1, Octopamine receptor (Periplaneta americana); assay: Agonist activity at Periplaneta americana (American cockroach) thoracic nerve cord octopaminergic receptor assessed as induction of adenylate cyclase-mediated cAMP production per mg protein at 10 uM by radioimmunoassay
[6] = substrate: CCc1cccc(CC)c1/N=C1/NCCO1; assay: (§1) Agonist activity at Periplaneta americana (American cockroach) thoracic nerve cord octopaminergic receptor assessed as induction of adenylate cyclase-mediated cAMP production per mg protein by radioimmunoassay relative to octopamine
[7] = substrate: Clc1ccc(CNC2=NCCS2)cc1Cl; assay: as §1
[8] = substrate: Clc1ccc(CNC2=NCCO2)cc1Cl; assay: as §1

Work on `FC(F)(F)c1ccccc1CNC1=NCCO1` yielded a max activation [1] of 5.1% and an Activity [2] of 137 pmol/min.

For `Clc1cc(Br)ccc1/N=C1/NCCO1`, the max activation [1] was -8.4% and the Activity [2] was 66.4 pmol/min.

With `COc1ccc(CNC2=NCCO2)cc1` the max activation [1] was 17% and the Activity [2] was 199 pmol/min.

In the case of `Fc1ccccc1CNC1=NCCO1`, the max activation [1] is reported as 14.2% and the Activity [2] is reported as 184 pmol/min.

`COc1ccccc1CNC1=NCCO1` gave a max activation [1] of 6.9% and an Activity [2] of 146 pmol/min.

`Clc1ccc(/N=C2/NCCO2)c(Cl)c1Cl` was tested, and the max activation [1] was 15.1% and the Activity [2] was 189 pmol/min.

With `Fc1cc(F)c(/N=C2/NCCO2)c(F)c1` the max activation [1] was 2.5% and the Activity [2] was 123 pmol/min.

`Clc1cccc(/N=C2/NCCO2)c1Cl` showed a max activation [1] of 2% and an Activity [2] of 121 pmol/min.

`NCC(O)c1ccc(O)cc1` (stereo not given) was tested, and the Activity [2] was 630 pmol/min and the Ka [3] was 7.6 µM.

Molecule `Clc1cccc(CNC2=NCCO2)c1` has an Activity [4] of 27.2%, a Ka [3] of 0.16 µM and an Activity [5] of 252 pmol/min.

With `Clc1cccc(/N=C2/NCCO2)c1` the max activation [1] was 0.2% and the Activity [2] was 111 pmol/min.

`FC(F)(F)c1cccc(CNC2=NCCO2)c1` was tested, and the max activation [1] was 17.2% and the Activity [2] was 200 pmol/min.

With `Clc1ccc(CNC2=NCCO2)cc1` the max activation [1] was 31.7% and the Activity [2] was 275 pmol/min.

With `CCc1cccc(CC)c1NC1=NCCN1` the Ka [3] was 0.44 µM.

`Fc1ccc(F)c(/N=C2/NCCO2)c1` gave a max activation [1] of -7.7% and an Activity [2] of 70.3 pmol/min.

`Cc1cc(Cl)ccc1/N=C1/NCCO1` gave a max activation [1] of 17.9%, an Activity [2] of 204 pmol/min and a Ka [3] of 0.18 µM.

`Clc1ccccc1CNC1=NCCO1` showed a max activation [1] of 17.4% and an Activity [2] of 200 pmol/min.

`Fc1ccc(CNC2=NCCO2)cc1` gave a max activation [1] of 11.2% and an Activity [2] of 168 pmol/min.

In the case of `CCc1ccccc1/N=C1/NCCO1`, the max activation [1] is reported as -5% and the Activity [2] is reported as 84.1 pmol/min.

`Clc1ccc(CNC2=NCCO2)c(Cl)c1` showed a max activation [1] of 11.8% and an Activity [2] of 172 pmol/min.

With `FC(F)(F)c1ccc(CNC2=NCCO2)cc1` the max activation [1] was 7% and the Activity [2] was 147 pmol/min.

`CCc1ccc(/N=C2/NCCO2)cc1` gave a max activation [1] of 11.5%, an Activity [2] of 170 pmol/min and a Ka [3] of 36 µM.

In the case of `Cc1ccc(CNC2=NCCO2)cc1`, the max activation [1] is reported as 35.2% and the Activity [2] is reported as 293 pmol/min.

`Brc1cc(Br)c(/N=C2/NCCO2)c(Br)c1` was tested, and the max activation [1] was -4.4% and the Activity [2] was 87.4 pmol/min.

With `Cc1cc(Br)ccc1/N=C1/NCCO1` the max activation [1] was 19.9%, the Activity [2] was 214 pmol/min and the Ka [3] was 0.19 µM.

Molecule `Clc1ccc(CNC2=NCCS2)cc1Cl` has a Ka [3] of 0.4 µM.

For `COc1ccc(CNC2=NCCO2)c(OC)c1`, the max activation [1] was 9.8% and the Activity [2] was 161 pmol/min.

Work on `COc1cc(/N=C2/NCCO2)cc(OC)c1OC` yielded a max activation [1] of -9.4% and an Activity [2] of 61.2 pmol/min.

`Fc1ccc(F)c(CNC2=NCCO2)c1` was tested, and the max activation [1] was 19.3% and the Activity [2] was 211 pmol/min.

`CCc1cccc(CC)c1/N=C1/NCCO1` showed a max activation [1] of 49%, an Activity [2] of 365 pmol/min and a Ka [3] of 0.44 µM.

Work on `FC(F)(F)c1ccc(/N=C2/NCCO2)cc1` yielded a max activation [1] of 6.6% and an Activity [2] of 145 pmol/min.

Molecule `Fc1cccc(F)c1/N=C1/NCCO1` has a max activation [1] of -0.3% and an Activity [2] of 109 pmol/min.

Molecule `Clc1ccc(CNC2=NCCO2)cc1Cl` has a max activation [1] of 13.5%, an Activity [2] of 180 pmol/min and a Ka [3] of 2.3 µM.

With `Brc1ccccc1CNC1=NCCO1` the max activation [1] was 10.4% and the Activity [2] was 164 pmol/min.

`O=[N+]([O-])c1cccc(CNC2=NCCO2)c1` gave a max activation [1] of 18.4% and an Activity [2] of 206 pmol/min.

In the case of `COc1cccc(CNC2=NCCO2)c1OC`, the max activation [1] is reported as 8.9% and the Activity [2] is reported as 157 pmol/min.

For `COc1cccc(CNC2=NCCO2)c1`, the max activation [1] was -3.6% and the Activity [2] was 91.5 pmol/min.

`FC(F)(F)c1ccc(C(F)(F)F)c(/N=C2/NCCO2)c1` gave a max activation [1] of -4.2% and an Activity [2] of 88.3 pmol/min.

With `Cc1cccc(CNC2=NCCO2)c1` the max activation [1] was 9.2% and the Activity [2] was 158 pmol/min.

B1: Octopamine receptor (Periplaneta americana), Q7YWB7 (protein)
chain: MRDGVMNASTCSALLEQVAWDDPGLIASLVVLLLINVMVIVGNCLVIAAVFMSSKLRSVTNLFIVSLAVADLMVGLAVLPFSATWEVFKVWIFGDVWCSIWLAVDVWMCTASILNLCAISLDRYVAVTRPVTYPSIMSSGRAKLLIAGVWVLSFVICFPPLVGWKDKREDPPSNSSGSLFGSRPLTPPPALQVPAPCPWICELTNDAGYVVYSALGSFYLPMLVMLFFYWRIYRAAVQTTRAINQGFRTTKGSRTIGNRFDEQRLTLRIHRGRGSSVMRHGPTPPPSSSQQDSSVTETSLASSACGSPSSGATSSSAVKSPECQRLTRSSTRRSNKPIKISVSYPSSDAICMAGSNNGGVPSSSPSPNSSKKSSFSSSSPPPGLYSVHYSNGGREATSSVYRSRDPNCHLRVTGSRLASHNRRGSSVRRRSSTDSTLTPGAAQQLLEDKDLSPSPTFDDSGSAKPKLISRMGKRNIKAQVKRFRMETKAAKTLGIIVGGFIVCWLPFFTMYLVRAFCEDCIHHLLFSVLFWLGYCNSAINPCIYALFSKDFRFAFKRIICRCFCARKIKKETRDWARRRGSDGSQLGARGPEPGSERGRSPSNNNTQQYPHNSVGEDSDQGNDGSDSR
B1 gave a Vmax [6] of 58%, a Vmax [7] of 53% and a Vmax [8] of 29%.

— ChEMBL document CHEMBL3046675, “Synthesis and Octopaminergic-Agonist Activity of 2-(Arylimino)oxazolidines and 2-(Substituted Benzylamino)-2-oxazolines” (J Pestic Sci, 1996)
